{
  "source": "patent US20120100184A1",
  "about": "“SYNTHESIS OF 1-AMINO-1,3,3,5,5,-CYCLOHEXANE MESYLATE” (MERZ PHARMA GmbH & CO.KGaA, priority 2009, published 2012)",
  "key": {"[1]": {"assay": "Particle size distribution of neramexane mesylate crystals by laser diffraction", "assay_type": "physicochemical", "conditions": "for d(10) / d(50) / d(90): Example 17, re-crystallized from anisole; for PSD d(10) / PSD d(50) / PSD d(90): re-crystallization step (iii) and seeding step (iv)", "experimental": "The particle size is determined according to the known methods employing laser diffraction as already mentioned above, and determining the distribution modal sizes.\nParticle size distribution ranges as determined by laser diffraction with mesylates obtained in anisole, cumene, methyl ethyl ketone, methyl isobutyl ketone and n-butyl acetate by performing at least re-crystallization step (iii) and seeding step (iv) are disclosed in the following table:\nThe crystals obtained in the process of Example 1 are analysed regarding the crystal size and size distribution. A commercial Malvern Mastersizer 2000 is employed. The samples are dispersed in rapeseed oil."}, "[2]": {"assay": "Amount of solvent necessary to dissolve 1 g neramexane mesylate (re-crystallization step (iii))", "assay_type": "physicochemical", "experimental": "20 ml cumene are necessary to dissolve 1 g neramexane mesylate at 104° C. The mixture is cooled down to ambient temperature. The re-crystallized product is isolated via centrifugation. The obtained crystals are columnar.\n22 ml methyl ethyl ketone are necessary to dissolve 1 g neramexane mesylate at 80° C. The mixture is cooled down to ambient temperature. The re-crystallized product is isolated via centrifugation. The obtained crystals have the form of plates in admixture with columnar crystals.\n20 ml methyl isobutyl ketone are necessary to dissolve 1 g neramexane mesylate at 100° C. The mixture is cooled down to ambient temperature. The re-crystallized product is isolated via centrifugation. The obtained crystals are columnar.\n23 ml n-butyl acetate are necessary to dissolve 1 g neramexane mesylate at 100° C. The mixture is cooled down to ambient temperature. The re-crystallized product is isolated via centrifugation. The obtained crystals are columnar.\n10 ml anisole are necessary to dissolve 1 g neramexane mesylate at 87° C. The mixture is cooled down to ambient temperature. The re-crystallized product is isolated via centrifugation. The obtained crystals are columnar.\n20 ml tetrahydrofurane are necessary to dissolve 1 g neramexane mesylate at 60° C. The mixture is cooled down to 57° C., where 5% by weight neramexane mesylate is added. Subsequently, the mixture is cooled down to ambient temperature. The re-crystallized product is isolated via centrifugation in a yield of 89%. The obtained crystals have the form of plates.\n20 ml toluene are necessary to dissolve 1 g neramexane mesylate at 80° C. The mixture is cooled down to ambient temperature. The re-crystallized product is isolated via centrifugation.\n100 ml of the mixture of acetone and water are necessary to dissolve 1 g neramexane mesylate at 40° C. The mixture is cooled down to ambient temperature. The re-crystallized product is isolated via centrifugation in a yield of 66%.\n55 ml of dichloromethane are necessary to dissolve 1 g neramexane mesylate at 40° C. The mixture is cooled down to ambient temperature. The re-crystallized product is isolated via centrifugation in a yield of 87%."}, "[3]": {"conditions": "mesylate of the prior art (Schweizer, Dissertation, page 200); cited from earlier work"}, "[4]": {"conditions": "Example 3, anisole, 5% by weight seeds added"}, "[5]": {"conditions": "crystals of Example 1 (anisole, no seeds), Malvern Mastersizer 2000, dispersed in rapeseed oil"}, "[6]": {"conditions": "obtained in methyl ethyl ketone"}, "[7]": {"conditions": "obtained in methyl isobutyl ketone"}},
  "data": [
    {"smiles": "CC1(C)CC(C)(C)CC(C)(N)C1.CS(=O)(=O)O", "note": "[neramexane mesylate, 1-amino-1,3,3,5,5-pentamethylcyclohexane mesylate]", "values": [
      {"measurement": "Particle size Distribution d(10)", "setting": "[1]; [4]", "result": 15, "unit": "μm"},
      {"measurement": "Particle size Distribution d(50)", "setting": "[1]; [4]", "result": 74, "unit": "μm"},
      {"measurement": "Particle size Distribution d(90)", "setting": "[1]; [4]", "result": 184, "unit": "μm"},
      {"measurement": "amount of particulate matter (particles having a diameter of 10 μm and less)", "setting": "[1]; Example 17, anisole, 1%, 2.5%, 5% and 7.5% seeds, respectively", "result": "below 5 % by weight"},
      {"measurement": "d(10)", "setting": "[1]; 1% seeds", "result": 69, "unit": "μm"},
      {"measurement": "d(50)", "setting": "[1]; 1% seeds", "result": 181, "unit": "μm"},
      {"measurement": "d(90)", "setting": "[1]; 1% seeds", "result": 377, "unit": "μm"},
      {"measurement": "d(10)", "setting": "[1]; 2.5% seeds", "result": 36, "unit": "μm"},
      {"measurement": "d(50)", "setting": "[1]; 2.5% seeds", "result": 119, "unit": "μm"},
      {"measurement": "d(90)", "setting": "[1]; 2.5% seeds", "result": 330, "unit": "μm"},
      {"measurement": "d(10)", "setting": "[1]; 5% seeds", "result": 24, "unit": "μm"},
      {"measurement": "d(50)", "setting": "[1]; 5% seeds", "result": 86, "unit": "μm"},
      {"measurement": "d(90)", "setting": "[1]; 5% seeds", "result": 215, "unit": "μm"},
      {"measurement": "d(10)", "setting": "[1]; 7.5% seeds", "result": 21, "unit": "μm"},
      {"measurement": "d(50)", "setting": "[1]; 7.5% seeds", "result": 76, "unit": "μm"},
      {"measurement": "d(90)", "setting": "[1]; 7.5% seeds", "result": 243, "unit": "μm"},
      {"measurement": "total amount of particles having a particle size of 10 μm and less", "setting": "[1]; crystals of Example 1 (anisole, no seeds)", "result": "less than 1 % by weight"},
      {"measurement": "Particle size Distribution d(10)", "setting": "[1]; [5]", "result": 52.3, "unit": "μm"},
      {"measurement": "Particle size Distribution d(50)", "setting": "[1]; [5]", "result": 129.4, "unit": "μm"},
      {"measurement": "Particle size Distribution d(90)", "setting": "[1]; [5]", "result": 264.5, "unit": "μm"},
      {"measurement": "PSD d(10)", "setting": "[1]; obtained in anisole", "result": 15, "unit": "μm"},
      {"measurement": "PSD d(50)", "setting": "[1]; obtained in anisole", "result": 74, "unit": "μm"},
      {"measurement": "PSD d(90)", "setting": "[1]; obtained in anisole", "result": 184, "unit": "μm"},
      {"measurement": "PSD d(10)", "setting": "[1]; obtained in cumene", "result": 12, "unit": "μm"},
      {"measurement": "PSD d(50)", "setting": "[1]; obtained in cumene", "result": 62, "unit": "μm"},
      {"measurement": "PSD d(90)", "setting": "[1]; obtained in cumene", "result": 152, "unit": "μm"},
      {"measurement": "PSD d(10)", "setting": "[1]; [6]", "result": 5, "unit": "μm"},
      {"measurement": "PSD d(50)", "setting": "[1]; [6]", "result": 79, "unit": "μm"},
      {"measurement": "PSD d(90)", "setting": "[1]; [6]", "result": 210, "unit": "μm"},
      {"measurement": "PSD d(10)", "setting": "[1]; [7]", "result": 11, "unit": "μm"},
      {"measurement": "PSD d(50)", "setting": "[1]; [7]", "result": 57, "unit": "μm"},
      {"measurement": "PSD d(90)", "setting": "[1]; [7]", "result": 137, "unit": "μm"},
      {"measurement": "PSD d(10)", "setting": "[1]; obtained in n-butyl acetate", "result": 12, "unit": "μm"},
      {"measurement": "PSD d(50)", "setting": "[1]; obtained in n-butyl acetate", "result": 58, "unit": "μm"},
      {"measurement": "PSD d(90)", "setting": "[1]; obtained in n-butyl acetate", "result": 136, "unit": "μm"},
      {"measurement": "solvent necessary to dissolve 1 g neramexane mesylate", "setting": "[2]; anisole, 87° C.", "result": 10, "unit": "mL"},
      {"measurement": "solvent necessary to dissolve 1 g neramexane mesylate", "setting": "[2]; cumene, 104° C.", "result": 20, "unit": "mL"},
      {"measurement": "solvent necessary to dissolve 1 g neramexane mesylate", "setting": "[2]; dichloromethane, 40° C. (comparison)", "result": 55, "unit": "mL"},
      {"measurement": "solvent necessary to dissolve 1 g neramexane mesylate", "setting": "[2]; methyl ethyl ketone, 80° C.", "result": 22, "unit": "mL"},
      {"measurement": "solvent necessary to dissolve 1 g neramexane mesylate", "setting": "[2]; methyl isobutyl ketone, 100° C.", "result": 20, "unit": "mL"},
      {"measurement": "solvent necessary to dissolve 1 g neramexane mesylate", "setting": "[2]; mixture of acetone/water 99/1 (volume/volume), 40° C. (comparison)", "result": 100, "unit": "mL"},
      {"measurement": "solvent necessary to dissolve 1 g neramexane mesylate", "setting": "[2]; n-butyl acetate, 100° C.", "result": 23, "unit": "mL"},
      {"measurement": "solvent necessary to dissolve 1 g neramexane mesylate", "setting": "[2]; tetrahydrofurane, 60° C.", "result": 20, "unit": "mL"},
      {"measurement": "solvent necessary to dissolve 1 g neramexane mesylate", "setting": "[2]; toluene, 80° C. (comparison)", "result": 20, "unit": "mL"},
      {"measurement": "particle population having a diameter of less than 10 μm", "setting": "[3]", "result": "approximately 20 % by weight"}
    ]}
  ]
}
